Results published in patent publication US20100144599A1, “VEGF PATHWAY BLOCKADE” (Bristol-Myers Squibb Company, priority 2007, published 2010).

Tests used:
[1] = Bhuyan et al., Cancer Res. 42 (1982); cited from earlier work
[2] = Toxicity study in the Colo205 colon carcinoma model; assay type: in vivo; details: sunitinib 60 mg/kg/day, sorafenib 80 mg/kg/day
Protocol: An additional study was performed using the Colo205 colon carcinoma model to test the toxicity of sunitinib (60 mg/kg/day), sorafenib (80 mg/kg/day), and Comp-I (30 mg/kg/day) treatment.

[3] = tested on: Colo205 colon carcinoma; test: Tumor inhibition, Colo-205 colon carcinoma xenogeneic s.c. model; assay type: in vivo, Human; details: 60 mg/kg, treatment started at average tumor size 200 mm^3, Kaplan Meier (FIG. 3)
Protocol: (§1) The anti-tumor effect of Comp-I was compared to bevacizumab treatment in a model of colon (Colo205 colon carcinoma) and brain (U87 glioblastoma) tumors.
The anti-tumor effect of Comp-I was also compared to treatment with sunitinib and sorafenib in a Colo205 colon carcinoma model. FIG. 3 depicts a Kaplan Meier Survival analysis on the length of time for individual tumors to reach a given size. […] All three compounds were administered at 60 mg/kg.

[4] = tested on: U87 glioblastoma; test: Tumor inhibition, U87 glioblastoma xenograft model; assay type: in vivo, Human; details: nude male mice, 30 mg/kg Comp-I or 5 mg/kg bevacizumab bi-weekly, 20 days (FIG. 2)
Protocol: The effect of Comp-I and bevacizumab treatment was assessed in a U87 xenograft model of human glioblastoma (FIG. 2). Briefly, nude male mice, 6-7 weeks of age, were implanted with U87 glioblastoma tumor cells (5×10^6) subcutaneously on the right flank. Tumor growth was monitored 2 times per week using caliper measurement. Drug treatment was initiated after the tumors reached a size of at least 50 mm^3.Tumor growth inhibition over vehicle was greater in Comp-I (56%) as compared to bevacizumab (35%) treatment.
as §1

In the case of `COc1c(O)c2c(c3cc(C(=O)N4CCc5c4c(O)c(OC)c4[nH]c(C(=O)N6CC7CC78C6=CC(=O)c6[nH]cc(C)c68)cc54)[nH]c13)CCN2C(N)=O` (stereo not drawn) [CC-1065], the “potency in vitro relative to commonly used anti-cancer drugs, such as doxorubicin, methotrexate and vincristine” value [1] is listed as “about 1000 fold”.

In the case of `CNC(=O)c1cc(Oc2ccc(NC(=O)Nc3ccc(Cl)c(C(F)(F)F)c3)cc2)ccn1` [sorafenib], the mice survived [2] was 14/15 and the “tumors remaining under 500 mm^3” value [3] was “around 60%”.

For `CCN(CC)CCNC(=O)c1c(C)[nH]c(/C=C2\C(=O)Nc3ccc(F)cc32)c1C` [sunitinib], the mice survived [2] was 12/15 and the “tumors remaining under 500 mm^3” value [3] was “around 60%”.

For bevacizumab, the “Tumor growth inhibition over vehicle” value [4] was 35%.
